Results from patent US11214594B2, “Antimicrobial peptide having synergistic antibacterial effect with antibiotics on multidrug resistant bacteria, and use thereof” (priority 2016, dated 2022).
Converted amounts (≈) assume the structure as drawn. Where a SMILES comes first, the peptide text is derived from it. [ ]: non-standard residue; d: D form.

Columns and labels:
MDREC 1238 = format: cell-based, Escherichia coli
Procedure, shortened: (§1)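 MIC read-out = lowest peptide level with no bacterial proliferation. Strains diluted in MH medium to 2×10^6 CFU; peptide twofold serial dilutions in MH added 1:1 in microtiter wells.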

MDRPA 2002 = format: cell-based, Pseudomonas aeruginosa
Procedure, shortened: as §1

MDRPA 2003 = format: cell-based, Pseudomonas aeruginosa
Procedure, shortened: as §1

A. baumannii = experiment: microbe, parasite or virus in culture; format: cell-based, Acinetobacter baumannii
Procedure, shortened: as §1

MDRAB 12035 [1] = experiment: microbe, parasite or virus in culture; format: cell-based, Acinetobacter baumannii
Procedure, shortened: as §1

MDRAB 12036 = format: cell-based, Acinetobacter baumannii
Procedure, shortened: as §1

S. typhimurium = experiment: microbe, parasite or virus in culture; format: cell-based, Salmonella typhimurium
Procedure, shortened: as §1

MDRST 8007 = experiment: Minimal inhibitory concentration (MIC), single agent; format: cell-based, Salmonella typhimurium; settings: agent alone
Procedure, shortened: as §1

S. aureus = experiment: microbe, parasite or virus in culture; format: cell-based, Staphylococcus aureus
Procedure, shortened: as §1

MRSA 3114 = format: cell-based, Staphylococcus aureus; settings: 3114
Procedure, shortened: as §1

MRSA 3126 = format: cell-based, Staphylococcus aureus; settings: 3126
Procedure, shortened: as §1

MDRAB 12035 [2] = experiment: MIC of antibiotic during combined treatment with antimicrobial peptide; format: cell-based, Acinetobacter baumannii
Procedure, shortened: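 Antibiotic MIC came from antibiotic dilutions added to bacteria (2×10^6 CFU/ml, MH medium) already combined with peptide serially diluted 2:1 from its own MIC. Swapping the roles of the two agents gave the peptide MIC.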

[3] = tested on: multi-drug resistant bacteria; experiment: MIC, summary statements for multi-drug resistant bacteria; format: cell-based
Procedure, shortened: as §1

[4] = peptide treatment concentration 1 μg/ml
[5] = peptide treatment concentration 2 μg/ml
[6] = peptide treatment concentration 4 μg/ml
[7] = peptide treatment concentration 6 μg/ml
[8] = peptide treatment concentration 8 μg/ml
[9] = peptide treatment concentration 16 μg/ml
[10] = peptide treatment concentration 32 μg/ml
[11] = peptide treatment concentration 64 μg/ml

Question: Which results are given for `CC[C@H](C)[C@H](NC(=O)[C@H](CCCCN)NC(=O)[C@H](Cc1c[nH]c2ccccc12)NC(=O)[C@@H](N)CCCNC(=N)N)C(=O)N[C@@H](Cc1ccccc1)C(=O)N[C@@H](CCCCN)C(=O)N[C@@H](CCCCN)C(=O)N[C@H](C(=O)N[C@H](CC(C)C)C(=O)N[C@@H](CCCCN)C(=O)N[C@@H](CC(C)C)C(=O)N[C@@H](CC(C)C)C(=O)N[C@@H](Cc1c[nH]cn1)C(=O)N[C@@H](CCC(=O)O)C(=O)N[C@@H](C)C(=O)N[C@@H](CCCCN)C(=O)N[C@@H](CCCCN)C(=O)N[C@@H](Cc1c[nH]c2ccccc12)C(N)=O)[C@@H](C)CC` [PapMA-24, RWK IFK KIl KLL HEA KKW-NH2] (H-RWKIFKKI[dL]KLLHEAKKW-NH2; N-terminus assumed)?
Answer: Minimal inhibitory concentration MIC (MDREC 1238): 32 µg/mL (≈ 13.5 µM); Minimal inhibitory concentration MIC (MDRPA 2002): 64 µg/mL (≈ 27.1 µM); Minimal inhibitory concentration MIC (MDRPA 2003): 64 µg/mL (≈ 27.1 µM); Minimal inhibitory concentration MIC (A. baumannii): 16 µg/mL (≈ 6.77 µM); Peptide MIC, peptide alone (A. baumannii): 16 µg/mL; Antibacterial activity relative to PapMA-1 (A. baumannii; A. baumannii and S. typhimurium): at least twice as high; Minimal inhibitory concentration MIC (MDRAB 12035 [1]): 32 µg/mL (≈ 13.5 µM); Peptide MIC, peptide alone (MDRAB 12035 [1]): 32 µg/mL; Minimal inhibitory concentration MIC (MDRAB 12036): 32 µg/mL (≈ 13.5 µM); Minimal inhibitory concentration MIC (S. typhimurium): 32 µg/mL (≈ 13.5 µM); Minimal inhibitory concentration MIC (MDRST 8007): 32 µg/mL (≈ 13.5 µM); Minimal inhibitory concentration MIC (S. aureus): >128 µg/mL; Minimal inhibitory concentration MIC (MRSA 3114): >128 µg/mL; Minimal inhibitory concentration MIC (MRSA 3126): >128 µg/mL; Erythromycin MIC during combined treatment with peptide (MDRAB 12035 [2]; [4]): 32 µg/mL; Linezolid MIC during combined treatment with peptide (MDRAB 12035 [2]; [4]): >128 µg/mL; Vancomycin MIC during combined treatment with peptide (MDRAB 12035 [2]; [4]): >128 µg/mL; Erythromycin MIC during combined treatment with peptide (MDRAB 12035 [2]; [5]): 32 µg/mL; Linezolid MIC during combined treatment with peptide (MDRAB 12035 [2]; [5]): >128 µg/mL; Vancomycin MIC during combined treatment with peptide (MDRAB 12035 [2]; [5]): >128 µg/mL; Erythromycin MIC during combined treatment with peptide (MDRAB 12035 [2]; [6]): 16 µg/mL; Linezolid MIC during combined treatment with peptide (MDRAB 12035 [2]; [6]): 64 µg/mL; Vancomycin MIC during combined treatment with peptide (MDRAB 12035 [2]; [6]): 64 µg/mL; Erythromycin MIC during combined treatment with peptide (MDRAB 12035 [2]; [7]): 2 µg/mL; Linezolid MIC during combined treatment with peptide (MDRAB 12035 [2]; [7]): 16 µg/mL; Vancomycin MIC during combined treatment with peptide (MDRAB 12035 [2]; [7]): 32 µg/mL; Erythromycin MIC during combined treatment with peptide (MDRAB 12035 [2]; [8]): 1 µg/mL; Linezolid MIC during combined treatment with peptide (MDRAB 12035 [2]; [8]): 8 µg/mL; Vancomycin MIC during combined treatment with peptide (MDRAB 12035 [2]; [8]): 16 µg/mL; Erythromycin MIC during combined treatment with peptide (MDRAB 12035 [2]; [9]): 0.25 µg/mL; Linezolid MIC during combined treatment with peptide (MDRAB 12035 [2]; [9]): 4 µg/mL; Vancomycin MIC during combined treatment with peptide (MDRAB 12035 [2]; [9]): 8 µg/mL; Erythromycin MIC during combined treatment with peptide (MDRAB 12035 [2]; [10]): 0 µg/mL; Linezolid MIC during combined treatment with peptide (MDRAB 12035 [2]; [10]): 0 µg/mL; Vancomycin MIC during combined treatment with peptide (MDRAB 12035 [2]; [10]): 0 µg/mL; Erythromycin MIC during combined treatment with peptide (MDRAB 12035 [2]; [11]): 0 µg/mL; Linezolid MIC during combined treatment with peptide (MDRAB 12035 [2]; [11]): 0 µg/mL; Vancomycin MIC during combined treatment with peptide (MDRAB 12035 [2]; [11]): 0 µg/mL; Antibacterial activity relative to PapMA-1 [3]: twice to four times higher
